The source made the active and inactive calls. The rule behind the calls is not given here.
Experiments:
[1] = system: Spodoptera litura; assay: Insecticidal activity against Spodoptera litura assessed as mortality at 500 ppm; assay type: functional, organism-based
[2] = system: Bemisia argentifolii; assay: Insecticidal activity against Bemisia argentifolii assessed as mortality at 500 ppm; assay type: functional, organism-based
[3] = system: Tetranychus urticae; assay: Insecticidal activity against Tetranychus urticae (two-spotted spider mite) in primary leaf stage of bean plant assessed as mortality at 500 ppm after 2 days; assay type: functional; conditions: 48 h
[4] = system: Plutella xylostella; assay: Insecticidal activity against third-instar larvae of Plutella xylostella (diamondback moth) in six-leaf stage of cabbage plant assessed as mortality at 500 ppm sprayed over two excised leaf squares after 2 days; assay type: functional; conditions: 48 h
[5] = system: Frankliniella occidentalis; assay: Insecticidal activity against Frankliniella occidentalis (western flower thrips) assessed as mortality at 500 ppm; assay type: functional, organism-based

With O=C1c2c([nH]c3ccccc3c2=O)-c2cccn21 [QUINOLACTACIDE] as the compound, how does the mortality [1] read?
Its mortality is “inactive”.

And the mortality [2]?
Its mortality is “inactive”.

What about the mortality at 500 ppm [3] of the same compound?
The mortality at 500 ppm was 42%.

What about the mortality at 500 ppm [4] of the same compound?
The mortality at 500 ppm was 100%.

And the mortality [5]?
The mortality was “inactive”.

— ChEMBL document CHEMBL3045662, “Synthesis of quinolactacide via an acyl migration reaction and dehydrogenation with manganese dioxide, and its insecticidal activities” (2006)
